≈ marks a conversion by molar mass, not a printed value. Read-outs that look alike come from different tables or passages of the source.
Tests used:
Test in all cases: Antibacterial activity (minimum inhibitory concentration), tube dilution method
Type in all cases: cell-based
[1] = system: Staphylococcus aureus 209P
Description: (§1) The antibacterial activities of some typical compounds of this invention were measured by a tube dilution method in a brain heart infusion broth (pH 7.5) as a culture medium.

[2] = system: Staphylococcus aureus MS9861; settings: for MIC: Staphylococcus aureus
Description: as §1

[3] = system: Bacillus subtilis NRRL B558; settings: for MIC: Bacillus subtilis
Description: as §1

[4] = system: Klebsiella pneumoniae PCI602
Description: as §1

[5] = tube dilution method, brain heart infusion broth (pH 7.5), read-out: minimum inhibitory concentration, Staphylococcus aureus 209P
[6] = MS9861, tube dilution method, brain heart infusion broth (pH 7.5), read-out: minimum inhibitory concentration, Staphylococcus aureus MS9861
[7] = NRRLB558, tube dilution method, brain heart infusion broth (pH 7.5), read-out: minimum inhibitory concentration, Bacillus subtilis NRRL B558
[8] = PCI602, tube dilution method, brain heart infusion broth (pH 7.5), read-out: minimum inhibitory concentration, Klebsiella pneumoniae PCI602
[9] = tube dilution method, brain heart infusion broth (pH 7.5)

SMILES | MIC [1, 5] [µg/mL] | MIC [2, 6] [µg/mL] | MIC [3, 7] [µg/mL] | MIC [4, 8] [µg/mL] | MIC ([1]; pH 7.5, read-out: minimum inhibitory concentration, Staphylococcus aureus 209P) [µg/mL] | MIC ([2]; MS9861, pH 7.5, read-out: minimum inhibitory concentration, Staphylococcus aureus MS9861, tube dilution method, brain heart infusion broth (pH 7.5)) [µg/mL] | minimum inhibitory concentration, Staphylococcus aureus MS9861 [2, 9] [µg/mL] | MIC ([3]; NRRLB558, pH 7.5, read-out: minimum inhibitory concentration, Bacillus subtilis NRRL B558, tube dilution method, brain heart infusion broth (pH 7.5)) [µg/mL] | minimum inhibitory concentration, Bacillus subtilis NRRL B558 [3, 9] [µg/mL] | MIC ([4]; PCI602, pH 7.5, read-out: minimum inhibitory concentration, Klebsiella pneumoniae PCI602) [µg/mL]
CCC1OC(=O)CC(O)C(C)C(OC2OC(C)C(OC3CC(C)(O)C(O)C(C)O3)C(N(C)C)C2O)C(CC=O)CC(C)C(=O)C=CC(C)=CC1COC(=O)C(NSc1ccccc1[N+](=O)[O-])c1ccccc1 (centres unmarked) [R1=H, R3=H, AR4=drawing 74] | 0.8 (≈ 0.778 µM) | 3.1 (≈ 3.01 µM) | 0.8 (≈ 0.778 µM) | 3.1 (≈ 3.01 µM) |  |  |  |  |  | 
CCC1OC(=O)CC(O)C(C)C(OC2OC(C)C(OC3CC(C)(O)C(O)C(C)O3)C(N(C)C)C2O)C(CC=O)CC(C)C(=O)C=CC(C)=CC1COC(=O)C(O)c1ccccc1 (centres unmarked) [R1=H, R3=H, AR4=drawing 73] | 0.4 (≈ 0.457 µM) | 1.6 (≈ 1.83 µM) | < 0.2 | 12.5 (≈ 14.3 µM) |  |  |  |  |  | 
CCC1OC(=O)CC(O)C(C)C(OC2OC(C)C(OC3CC(C)(O)C(O)C(C)O3)C(N(C)C)C2O)C(CC=O)CC(C)C(=O)C=CC(C)=CC1CSC (centres unmarked) [R1=H, R3=H, AR4=SCH3, 23-Deoxy-23-methylthio-YO-9010] | 0.8 (≈ 1.04 µM) | 1.6 (≈ 2.07 µM) | 0.8 (≈ 1.04 µM) | 6.3 (≈ 8.16 µM) |  |  |  |  |  | 
CCC1OC(=O)CC(O)C(C)C(OC2OC(C)C(OC3CC(C)(O)C(OC(=O)CC(C)C)C(C)O3)C(N(C)C)C2O)C(CC=O)CC(C)C(=O)C=CC(C)=CC1COC(=O)CC(C)C (centres unmarked) [R1=H, R3=drawing 77, AR4=drawing 78] | 1.6 (≈ 1.76 µM) | 12.5 (≈ 13.7 µM) | 0.8 (≈ 0.879 µM) | 6.3 (≈ 6.92 µM) |  |  |  |  |  | 
CCC1OC(=O)CC(O)C(C)C(OC2OC(C)C(OC3CC(C)(O)C(O)C(C)O3)C(N(C)C)C2O)C(CC=O)CC(C)C(=O)C=CC(C)=CC1CSc1ccccc1 (centres unmarked) [R1=H, R3=H, AR4=drawing 80] | < 0.2 | 1.6 (≈ 1.92 µM) | < 0.2 | 25 (≈ 30 µM) |  |  |  |  |  | 
CCC1OC(=O)CC(O)C(C)C(OC2OC(C)C(OC3CC(C)(O)C(OC(=O)CSc4ccccc4)C(C)O3)C(N(C)C)C2O)C(CC=O)CC(C)C(=O)C=CC(C)=CC1CO (centres unmarked) [R1=H, R3=drawing 67, AR4=OH] | 0.4 (≈ 0.448 µM) | 3.1 (≈ 3.47 µM) | < 0.2 | 3.1 (≈ 3.47 µM) |  |  |  |  |  | 
CCC1OC(=O)CC(OC(C)=O)C(C)C(OC2OC(C)C(OC3CC(C)(O)C(OC(=O)CC(C)C)C(C)O3)C(N(C)C)C2O)C(CC=O)CC(C)C(=O)C=CC(C)=CC1CO (centres unmarked) [N-1 substance, 3-O-acetyl-4"-O-isovaleryl-YO-9010, reference compound] | 0.4 (≈ 0.461 µM) | 1.6 (≈ 1.84 µM) | 0.8 (≈ 0.922 µM) | 3.1 (≈ 3.57 µM) |  |  |  |  |  | 
CCC1OC(=O)CC(O)C(C)C(OC2OC(C)C(OC3CC(C)(O)C(OC(=O)CC(C)C)C(C)O3)C(N(C)C)C2O)C(CC=O)CC(C)C(=O)C=CC(C)=CC1CSc1ccccc1 (centres unmarked) [R1=H, R3=drawing 82, AR4=drawing 83] | 3.1 (≈ 3.38 µM) | 6.3 (≈ 6.86 µM) | 3.1 (≈ 3.38 µM) | > 100 |  |  |  |  |  | 
CCC1OC(=O)CC(O)C(C)C(OC2OC(C)C(OC3CC(C)(O)C(O)C(C)O3)C(N(C)C)C2O)C(CC=O)CC(C)C(=O)C=CC(C)=CC1CI (centres unmarked) [R1=H, R3=H, AR4=I, 23-Deoxy-23-iodo-YO-9010] | 0.4 (≈ 0.47 µM) | 3.1 (≈ 3.64 µM) | < 0.2 | 6.3 (≈ 7.4 µM) |  |  |  |  |  | 
CCC1OC(=O)CC(O)C(C)C(OC2OC(C)C(OC3CC(C)(O)C(O)C(C)O3)C(N(C)C)C2O)C(CC=O)CC(C)C(=O)C=CC(C)=CC1CO (centres unmarked) [Antibiotic YO9010, 23-demycinosyltylosin, reference compound] | 0.8 (≈ 1.08 µM) | 3.1 (≈ 4.18 µM) | 1.6 (≈ 2.16 µM) | 12.5 (≈ 16.8 µM) |  |  |  |  |  | 
CCC1OC(=O)CC(O)C(C)C(OC2OC(C)C(OC3CC(C)(O)C(O)C(C)O3)C(N(C)C)C2O)C(CC=O)CC(C)C(=O)C=CC(C)=CC1COC(=O)CSc1ccncc1 (centres unmarked) [R1=H, R3=H, AR4=drawing 72] | 0.8 (≈ 0.896 µM) | 3.1 (≈ 3.47 µM) | < 0.2 | 12.5 (≈ 14 µM) |  |  |  |  |  | 
CCC1OC(=O)CC(O)C(C)C(OC2OC(C)C(OC3CC(C)(O)C(OC(=O)CC(C)C)C(C)O3)C(N(C)C)C2O)C(CC=O)CC(C)C(=O)C=CC(C)=CC1COC(C)=O (centres unmarked) [R1=H, R3=drawing 75, AR4=OCOCH3, 23-O-Acetyl-4"-O-isovaleryl-YO-9010] | 0.8 (≈ 0.922 µM) | 6.3 (≈ 7.26 µM) | 1.6 (≈ 1.84 µM) | 3.1 (≈ 3.57 µM) |  |  |  |  |  | 
CCC1OC(=O)CC(O)C(C)C(OC2OC(C)C(OC3CC(C)(O)C(O)C(C)O3)C(N(C)C)C2O)C(CC=O)CC(C)C(=O)C=CC(C)=CC1CBr (centres unmarked) [R1=H, R3=H, AR4=Br, 23-Deoxy-23-bromo-YO-9010] | < 0.2 | 0.8 (≈ 0.994 µM) | < 0.2 | 6.3 (≈ 7.83 µM) |  |  |  |  |  | 
CCC1OC(=O)CC(O)C(C)C(OC2OC(C)C(OC3CC(C)(O)C(OC(=O)CC(C)C)C(C)O3)C(N(C)C)C2O)C(CC=O)CC(C)C(=O)C=CC(C)=CC1CBr (centres unmarked) [R1=H, R3=drawing 68, AR4=Br, 23-Deoxy-23-bromo-4"-O-isovaleryl-YO-9010] | 0.8 (≈ 0.9 µM) | 1.6 (≈ 1.8 µM) | 0.4 (≈ 0.45 µM) | 6.3 (≈ 7.09 µM) |  |  |  |  |  | 
CCC1OC(=O)CC(O)C(C)C(OC2OC(C)C(OC3CC(C)(OC(C)=O)C(OC(=O)CC(C)C)C(C)O3)C(N(C)C)C2O)C(CC=O)CC(C)C(=O)C=CC(C)=CC1COC(C)=O (centres unmarked) [(R2)=COCH3, R3=drawing 75, AR4=OCOCH3] | 1.6 (≈ 1.76 µM) | 6.3 (≈ 6.92 µM) | 1.6 (≈ 1.76 µM) | 25 (≈ 27.5 µM) |  |  |  |  |  | 
CCC1OC(=O)CC(O)C(C)C(OC2OC(C)C(OC3CC(C)(O)C(OC(=O)CC(C)C)C(C)O3)C(N(C)C)C2O)C(CC=O)CC(C)C(=O)C=CC(C)=CC1CO (centres unmarked) [R1=H, R3=drawing 66, AR4=OH, 4"-O-isovaleryl-YO-9010] | 0.4 (≈ 0.484 µM) | 1.6 (≈ 1.94 µM) | 0.8 (≈ 0.968 µM) | 1.6 (≈ 1.94 µM) |  |  |  |  |  | 
CCC1OC(=O)CC(OC(C)=O)C(C)C(OC2OC(C)C(OC3CC(C)(O)C(OC(=O)CC(C)C)C(C)O3)C(N(C)C)C2O)C(CC=O)CC(C)C(=O)C=CC(C)=CC1CBr (centres unmarked) [R1=COCH3, R3=drawing 68, AR4=Br, 3-O-Acetyl-23-deoxy-23-bromo-4"-O-isovaleryl-YO-9010] | 1.6 (≈ 1.72 µM) | 3.1 (≈ 3.33 µM) | 1.6 (≈ 1.72 µM) | > 100 |  |  |  |  |  | 
CCC1OC(=O)CC(O)C(C)C(OC2OC(C)C(OC3CC(C)(O)C(OC(C)=O)C(C)O3)C(N(C)C)C2O)C(CC=O)CC(C)C(=O)C=CC(C)=CC1CO (centres unmarked) [R1=H, R3=COCH3, AR4=OH] | 1.6 (≈ 2.04 µM) | 25 (≈ 31.9 µM) | 1.6 (≈ 2.04 µM) | 3.1 (≈ 3.95 µM) |  |  |  |  |  | 
CCC1OC(=O)CC(O)C(C)C(OC2OC(C)C(OC3CC(C)(O)C(O)C(C)O3)C(N(C)C)C2O)C(CC=O)CC(C)C(=O)C=CC(C)=CC1COS(=O)(=O)c1ccc(C)cc1 (centres unmarked) [R1=H, R3=H, AR4=drawing 79] | 0.8 (≈ 0.893 µM) | 6.3 (≈ 7.03 µM) | 0.4 (≈ 0.446 µM) | 25 (≈ 27.9 µM) |  |  |  |  |  | 
CCC1OC(=O)CC(O)C(C)C(OC2OC(C)C(OC3CC(C)(O)C(OC(=O)CSc4ccncc4)C(C)O3)C(N(C)C)C2O)C(CC=O)CC(C)C(=O)C=CC(C)=CC1CBr (centres unmarked) [R1=H, R3=drawing 70, AR4=Br] | 0.2 (≈ 0.209 µM) | 0.8 (≈ 0.837 µM) | < 0.2 | 12.5 (≈ 13.1 µM) |  |  |  |  |  | 
CCC1OC(=O)CC(O)C(C)C(OC2OC(C)C(OC3CC(C)(O)C(O)C(C)O3)C(N(C)C)C2O)C(CC=O)CC(C)C(=O)C=CC(C)=CC1CSc1nnnn1C (centres unmarked) [R1=H, R3=H, AR4=drawing 81] | 0.8 (≈ 0.952 µM) | 3.1 (≈ 3.69 µM) | < 0.2 | 12.5 (≈ 14.9 µM) |  |  |  |  |  | 
CCC1OC(=O)CC(O)C(C)C(OC2OC(C)C(OC3CC(C)(O)C(O)C(C)O3)C(N(C)C)C2O)C(CC=O)CC(C)C(=O)C=CC(C)=CC1COC(C)=O (centres unmarked) [R1=H, R3=H, AR4=OCOCH3] | 0.4 (≈ 0.51 µM) | 1.6 (≈ 2.04 µM) | 0.4 (≈ 0.51 µM) | 25 (≈ 31.9 µM) |  |  |  |  |  | 
CCC1OC(=O)CC(O)C(C)C(OC2OC(C)C(OC3CC(C)(O)C(O)C(C)O3)C(N(C)C)C2O)C(CC=O)CC(C)C(=O)C=CC(C)=CC1COC(=O)Cc1ccccc1 (centres unmarked) [R1=H, R3=H, AR4=drawing 71] |  |  |  |  | 0.4 (≈ 0.465 µM) | 1.6 (≈ 1.86 µM) | 3.1 (≈ 3.6 µM) | < 0.2 | 0.4 (≈ 0.465 µM) | 6.3 (≈ 7.33 µM)
CCC1OC(=O)CC(O)C(C)C(OC2OC(C)C(OC3CC(C)(O)C(OC(=O)CSc4ccccc4)C(C)O3)C(N(C)C)C2O)C(CC=O)CC(C)C(=O)C=CC(C)=CC1CBr (centres unmarked) [R1=H, R3=drawing 69, AR4=Br] | 0.4 (≈ 0.419 µM) | 3.1 (≈ 3.25 µM) | 1.6 (≈ 1.68 µM) | > 100 |  |  |  |  |  | 
CCC1OC(=O)CC(O)C(C)C(OC2OC(C)C(OC3CC(C)(OC(C)=O)C(OC(=O)CC(C)C)C(C)O3)C(N(C)C)C2O)C(CC=O)CC(C)C(=O)C=CC(C)=CC1CO (centres unmarked) [(R2)=COCH3, R3=drawing 66, AR4=OH, 3"-O-acetyl-4"-O-isovaleryl-YO-9010] | 0.8 (≈ 0.922 µM) | 3.1 (≈ 3.57 µM) | 0.4 (≈ 0.461 µM) | > 100 |  |  |  |  |  | 
CCC1OC(=O)CC(O)C(C)C(OC2OC(C)C(OC3CC(C)(O)C(O)C(C)O3)C(N(C)C)C2O)C(CC=O)CC(C)C(=O)C=CC(C)=CC1COC1CCCCO1 (centres unmarked) [R1=H, R3=H, AR4=drawing 84] | 0.8 (≈ 0.968 µM) | 3.1 (≈ 3.75 µM) | 0.8 (≈ 0.968 µM) | 12.5 (≈ 15.1 µM) |  |  |  |  |  | 
CCC1OC(=O)CC(O)C(C)C(OC2OC(C)C(OC3CC(C)(O)C(OC(=O)CSc4ccccc4)C(C)O3)C(N(C)C)C2O)C(CC=O)CC(C)C(=O)C=CC(C)=CC1COC(C)=O (centres unmarked) [R1=H, R3=drawing 76, AR4=OCOCH3] | 0.8 (≈ 0.856 µM) | 1.6 (≈ 1.71 µM) | 0.2 (≈ 0.214 µM) | 100 (≈ 107 µM) |  |  |  |  |  | 
